Data from paper PMC9619376 (iScience, 2022).
pIC50: −log10 of the molar value.

How the values were obtained:
[1] = target: GFP 10M2/11M4 EBOV VP35_75-185 (EBOV VP35 oligomerization domain) (Ebola virus - Mayinga, Zaire, 1976, UniProt Q05127); assay: biochemical; assay type: binding
[2] = target: EBOV VP35_75-185 (native, non GFP-tagged) (Ebola virus - Mayinga, Zaire, 1976, UniProt Q05127); assay type: binding
Sequence of EBOV VP35_75-185 (native, non GFP-tagged) (Q05127 75-185 limits assumed): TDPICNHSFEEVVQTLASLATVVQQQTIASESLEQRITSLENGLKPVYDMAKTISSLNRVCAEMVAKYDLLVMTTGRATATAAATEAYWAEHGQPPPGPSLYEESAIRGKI

Sequence of GFP 10M2/11M4 EBOV VP35_75-185 (EBOV VP35 oligomerization domain) (Q05127 75-185 limits assumed): as above

SMILES: Brc1c(Br)c(Br)c2[nH]nnc2c1Br [TBBT, 4,5,6,7-Tetrabromobenzotriazole]
- pIC50 [1]: 4.49
- Tm at 100 μM compound (70.8 at 0 μM) [2]: 66.9 °C

SMILES: O=c1c(O)c(-c2cc(O)c(O)c(O)c2)oc2cc(O)cc(O)c12 [Myricetin]
- pIC50 [1]: 4.19
- Tm at 100 μM compound (70.8 at 0 μM) [2]: 73.5 °C
